Data taken from patent publication US5656669A, “Restorative neuropharmacological agent for motor and speech disturbance” (Sumitomo Pharmaceuticals Co., Ltd., priority 1994, dated 1997).
Entries after “also recorded” stand apart in the source; their conditions may differ. Read-outs that look alike come from different tables or passages of the source.

Legend:
[1] = Clinical testing, speech disturbance (Broca aphasia after stroke): standard aphasia testing (SLAT); format: in vivo, clinical subjects; settings: after 2 weeks
Method: (§1) The clinical subjects for speech disturbance were 10 cases of Broca aphasia after stroke (3 males and 7 females, age 51-65 with an average of 58.6±1.6 years).
(§2) First, without administration of droxidopa, the clinical subjects were evaluated with standard aphasia testing (SLAT). […] For 8 of the clinical subjects, 100 mg of droxidopa was administered once a day for a subsequent 2 weeks and evaluation was conducted using SLAT.

rabbits = settings: oral 30, 100, 300 mg/kg/day; cited from earlier work
rhesus monkeys [2] = settings: oral 300, 1,000, 3,000 mg/kg/day, 3 months; cited from earlier work
[3] = Side-effects in clinical subjects with speech disturbance; format: in vivo; settings: clinical subjects with Broca aphasia
Method: as §1, §2

[4] = Speech observation on administration and on stopping administration, Broca aphasia after stroke; format: in vivo, clinical subjects
Method: as §1, §2
Administration of droxidopa to these clinical subjects was stopped after 2 weeks. As a result, speech was totally lost in 2 cases. Subsequently, administration of droxidopa was stopped twice and, in one case, speech was totally lost every time administration was stopped and restored when administration was resumed.

microorganisms = settings: cited from earlier work
[5] = Short term clinical testing, motor disturbance: Barthel index (ADL); format: in vivo, clinical subjects; settings: of the 19 cases improved in 10-meter walking; 300 mg per day for 2 days
Method: (§3) Clinical testing was conducted to evaluate the effects of the restorative neuropharmacological agent for motor and speech disturbance according to this invention.
(§4) Clinical subjects for motor disturbance were 2 cases after cerebral aneurysm operations (subarachnoid hemorrhage), 9 cases of brain hemorrhage and 10 cases of brain infarction with chronic apoplectic paralysis, i.e. a total of 21 cases (12 males and 9 females, age 43-83 with an average 61.9±2.5 years). For these clinical subjects, the average time elapsed from the onset had occurred was 100 days.
(§5) First, the clinical subjects received physical therapy without administration of droxidopa (L-DOPS), and then they were evaluated with FMS (Fugl-Meyer score), 10-meter walking and the Barthel index. The clinical subjects then received administration of 300 mg droxidopa (L-DOPS) per day for 2 days in addition to the physical therapy, and were evaluated with FMS. 10-meter walking and with the Barthel index.

[6] = system: guinea pigs (Hartley strain, male); settings: cited from earlier work
SD rats [7] = settings: oral, 12 months, cited from earlier work
[8] = Short term clinical testing, motor disturbance: 10-meter walking; format: in vivo, clinical subjects; settings: of the 21 cases; 300 mg per day for 2 days
Method: as §3, §4, §5

beagle dogs [9] = settings: oral 200, 600, 2,000 mg/kg/day, 3 months; cited from earlier work
beagle dogs [10] = settings: oral 125, 500, 2,000 mg/kg/day, 12 months; cited from earlier work
solubility = format: physicochemical
Description: (§6) L-threo-DOPS, whose molecular formula is C9 H11 NO5, is white or light brown crystals or crystalline powder with no taste or odor. […] It is difficult to measure a clear melting point or decomposition point for L-threo-DOPS. […] DL-threo-DOPS, which contains 50% L-threo-DOPS, can also be used in this invention. Hereafter, L-threo-DOPS and DL-threo-DOPS are generically denoted as "threo-DOPS".

Rats, SD strain = settings: cited from earlier work
[11] = Repeated 2-day administration after 1-2 weeks and halt of administration, motor functions; format: in vivo, clinical subjects
Description: The administration of droxidopa to the clinical subjects was then halted, but the level of the improvement effect on motor functions was maintained.

SD rats [12] = settings: cited from earlier work
rhesus monkeys [13] = settings: cited from earlier work; for LD50: oral
cultured cells = settings: cited from earlier work
SD rats [14] = settings: oral 60, 200, 600 mg/kg/day, male and female; cited from earlier work
beagle dogs [15] = settings: cited from earlier work; for LD50: oral
mice = settings: cited from earlier work
physchem = format: physicochemical; settings: titration method
Description: as §6

[16] = Long term administration testing: Barthel index (ADL); format: in vivo, clinical subjects; settings: for Improvement in ADL: individual case
Method: Based on the above results, […] term administration testing was conducted.

SMILES: N[C@@H](C(=O)O)[C@H](O)c1ccc(O)c(O)c1 [L-threo-DOPS, (-)-(2R, 3R)-2-amino-3-hydroxy-3-(3,4-dihydroxyphenyl) propionic acid]
- cases with improvement in "hearing" (SLAT) [1]: one
- cases with improvement in "reading" (SLAT) [1]: 3 cases
- cases with improvement in "repeating" (SLAT) [1]: 2 cases
- cases with improvement in "speaking" (SLAT) [1]: 7 cases
- cases with improvement in "writing" (SLAT) [1]: 6 cases
- average improvement rate, SLAT "hearing", imperatives ([1]; 100 mg once a day): 16%
- average improvement rate, SLAT "hearing", short sentences ([1]; 100 mg once a day): 33%
- average improvement rate, SLAT "reading", Chinese character words ([1]; 100 mg once a day): 10%
- average improvement rate, SLAT "reading", short sentences ([1]; 100 mg once a day): 20%
- average improvement rate, SLAT "repeating" ([1]; 100 mg once a day): 10%
- average improvement rate, SLAT "speaking", actions ([1]; 100 mg once a day): 13%
- average improvement rate, SLAT "speaking", names ([1]; 100 mg once a day): 27%
- average improvement rate, SLAT "writing", Japanese syllabary words ([1]; 100 mg once a day): 20%
- cases with improved SLAT results ([1]; of the 10 cases): 8 cases
- influence, organ forming period (rabbits): no influence on the rabbits was observed
- subacute toxicity findings (rhesus monkeys [2]): no abnormality was observed
- side-effects [3]: No serious side-effect was observed
- speech after 2 days of administration ([4]; 300 mg, 3 times a day for 2 days): speech improved
- cases in which speech was totally lost after administration was stopped ([4]; administration stopped after 2 weeks): 2 cases
- cases in which speech was totally lost every time administration was stopped and restored when resumed ([4]; administration stopped twice): one
- mutagenicity, back mutation testing (microorganisms): no mutagenicity was observed
- cases with improvement in the Barthel index (ADL) [5]: one
- Endodermoreaction [6]: negative
- PCA reaction [6]: negative
- intra-gel sedimentation reaction [6]: negative
- systemic anaphylaxis reaction [6]: negative
- chronic toxicity findings (SD rats [7]; 30 mg/kg/day and higher): suppression of weight increases, an increase in thymus weight, necrosis of kidney uriniferous tubuli, degeneration of kidney glomeruli, etc. were observed
- chronic toxicity findings (SD rats [7]; 100 mg/kg/day and higher): drooling, myocarditis and calcification of cardiac muscles, etc. were observed
- cases with improvement in the 10-meter walking [8]: 19 cases
- subacute toxicity findings (beagle dogs [9]): no abnormality was observed
- chronic toxicity findings (beagle dogs [10]): no abnormality was observed
- solubility in ethanol (solubility; ethanol): dissolves very little
- solubility in ether (solubility; ether): dissolves very little
- solubility in glacial acetic acid (solubility; glacial acetic acid): dissolves very little
- solubility in water (solubility; water): dissolves only slightly
- LD50 (Rats, SD strain; hypodermic, female): 95 mg/kg
- LD50 (Rats, SD strain; hypodermic, male): 84 mg/kg
- LD50 (Rats, SD strain; intravenous, female): 19 mg/kg
- LD50 (Rats, SD strain; intravenous, male): 16 to 19 mg/kg
- LD50 (Rats, SD strain; oral, female): > 10000 mg/kg
- LD50 (Rats, SD strain; oral, male): > 10000 mg/kg
- general symptoms, acute toxicity (Rats, SD strain; rats): reduced voluntary motions, deep breathing and bradypnea were observed
- cases with further improvement on repeated administration ([11]; 5 cases re-dosed for 2 consecutive days after 1-2 weeks): 3 cases
- level of the improvement effect on motor functions after administration was halted ([11]; after halting administration): maintained
- other influence, organ forming period (SD rats [12]; oral 60, 200, 600 mg/kg/day): No other influence was observed
- findings in fetuses (SD rats [12]; oral, 200 mg/kg or higher, restorable after birth): lower body weights of fetuses and an increase in the occurrence of undulating ribs were observed
- LD50 (rhesus monkeys [13]; female): > 5000 mg/kg
- LD50 (rhesus monkeys [13]; male): > 5000 mg/kg
- general symptoms, acute toxicity (rhesus monkeys [13]; rhesus monkeys): no abnormal symptom was observed
- mutagenicity, chromosome abnormality testing (cultured cells): no mutagenicity was observed
- mating rate, conception rate, nidation number, embryo/neonate death, teratogenic actions or fetal development (SD rats [14]): no influence was observed
- general symptoms, acute toxicity (beagle dogs [15]; dogs): no abnormal symptom was observed
- LD50 (beagle dogs [15]; female): > 5000 mg/kg
- LD50 (beagle dogs [15]; male): > 5000 mg/kg
- mutagenicity, micronucleus testing (mice): no mutagenicity was observed
- pKa (physchem): 7.88
- dependence of results on time elapsed since onset of the illness ([16]; 200-500 mg/day for 2 weeks to 2 months): independent of the time elapsed since onset of the illness
- Improvement in ADL ([16]; 200 mg per day × 2W, listed as L-DOPS): Improved; also recorded: No change
- Improvement in ADL ([16]; 200 mg per day × 4W): No change
- Improvement in ADL ([16]; 200 mg per day × 8W): Improved
- Improvement in ADL ([16]; 300 mg per day × 3W): Improved
- Improvement in ADL ([16]; 300 mg per day × 6W): Improved
- Improvement in ADL ([16]; 300 mg per day × 7W): No change
- Improvement in ADL ([16]; 500 mg per day × 6W): Improved
- cases with improvement in the Barthel index (ADL) ([16]; of the 10 cases, 200-500 mg/day for 2 weeks to 2 months): 7 cases
